Reference: the Deep4Chem optical property database
Blank lines part the entries; values can stand above or below the molecule they belong to.

Experiment: photoluminescence quantum yield (fraction); solvent given as SMILES

Structure (SMILES): CCCCCCC1(CCCCCC)c2ccccc2-c2ccc(-c3ccc(-c4cc(-c5ccccn5)nc(-c5ccccn5)c4)cc3)cc21
photoluminescence quantum yield (in ClCCl): 0.92

Structure (SMILES): Cc1ccc(N(c2ccc(C)cc2)c2ccc3c(c2)c2cc(N(c4ccc(C)cc4)c4ccc(C)cc4)ccc2n3-c2ccc(-c3nc4cccc5c4n3-c3ccccc3C5(C)C)cc2)cc1
photoluminescence quantum yield (in Cc1ccccc1): 0.85 | photoluminescence quantum yield (in O=P(c1ccccc1)(c1ccccc1)c1ccccc1Oc1ccccc1P(=O)(c1ccccc1)c1ccccc1): 0.45

Structure (SMILES): COc1ccc(N(c2ccc(OC)cc2)c2ccc(-c3ccc4c(c3)C(=O)c3ccccc3C4=O)cc2)cc1
photoluminescence quantum yield (in C1CCOC1): 0 | photoluminescence quantum yield (in CCCCCC): 0.265 | photoluminescence quantum yield (in CCOC(C)=O): 0 | photoluminescence quantum yield (in Cc1ccccc1): 0.0045 | photoluminescence quantum yield (in ClC(Cl)(Cl)Cl): 0.0538 | photoluminescence quantum yield (in ClCCl): 0

Structure (SMILES): COc1ccc(/C=C/c2nc(N3CCOCC3)c3c([n+]2[O-])CCCC3)cc1
photoluminescence quantum yield (in ClCCl): 0.12

Structure (SMILES): C/C=C/C=C/C1=NC(=C\c2ccc([O-])cc2)/C(=O)N1C
photoluminescence quantum yield (in O): 0.0008

Structure (SMILES): CC1(C)c2ccccc2N(c2ccc(-c3ccc(C#N)nc3)cc2)c2ccccc21
photoluminescence quantum yield (in Cc1ccccc1): 0.345 | photoluminescence quantum yield (in N#Cc1ccc2c(c1)c1ccccc1n2-c1cccc(-n2c3ccccc3c3ccccc32)c1): 0.916

Structure (SMILES): S=c1[nH]nc(-c2ccc(/C=C/c3ccc(-c4n[nH]c(=S)o4)cc3)cc2)o1
photoluminescence quantum yield (in CN(C)C=O): 0.33

Structure (SMILES): CCCCN(CCCC)c1ccc(C#Cc2cc(C#Cc3ccc(C#N)cc3)c(C#Cc3ccc(N(CCCC)CCCC)cc3)cc2C#Cc2ccc(C#N)cc2)cc1
photoluminescence quantum yield (in ClCCl): 0.25

Structure (SMILES): c1cc2c3c(c1)-c1cccc4cccc(c14)B3c1cccc3cccc-2c13
photoluminescence quantum yield (in Cc1ccccc1): 0.9

Structure (SMILES): COc1ccc2ncccc2c1
photoluminescence quantum yield (in CC#N): 0.071 | photoluminescence quantum yield (in CCCC#N): 0.075 | photoluminescence quantum yield (in Cc1ccccc1): 0.014

Structure (SMILES): Cc1c(C)n2c(COC(=O)CNC(=O)OC(C)(C)C)c(C)c(=O)n2c1=O
photoluminescence quantum yield (in CCO): 0.63

Structure (SMILES): Cc1ccc(N2C(c3ccccc3NS(=O)(=O)c3ccc(C)cc3)=NC(c3ccccc3)C2c2ccccc2)cc1 (centres undefined)
photoluminescence quantum yield (in Cc1ccccc1): 0.004

Structure (SMILES): COc1cc(C(=O)O)cc(OC)c1O
photoluminescence quantum yield (in O): 0.009

Structure (SMILES): Cc1ccc2c(c1)c1cc(C)ccc1n2-c1c(C#N)c(-n2c3ccc(C)cc3c3cc(C)ccc32)c(-n2c3ccc(C)cc3c3cc(C)ccc32)c(C#N)c1-n1c2ccc(C)cc2c2cc(C)ccc21
photoluminescence quantum yield (in Cc1ccccc1): 0.474

Structure (SMILES): Oc1ccc(C2=N[N+]3=Cc4c(ccc5ccccc45)O[B-]3(c3ccc([B-]45OC(c6ccc(O)cc6)=N[N+]4=Cc4c(ccc6ccccc46)O5)cc3)O2)cc1 (centres undefined)
photoluminescence quantum yield (in C1CCOC1): 0.01

Structure (SMILES): c1ccc(-c2nn(-c3ccccc3)c3nc4ccc(N(c5ccccc5)c5cccc6ccccc56)cc4cc23)cc1
photoluminescence quantum yield (in C1CCCCC1): 0.57 | photoluminescence quantum yield (in C1CCOC1): 0.57 | photoluminescence quantum yield (in CC#N): 0.41 | photoluminescence quantum yield (in CC(C)=O): 0.53 | photoluminescence quantum yield (in CCCCCl): 0.56 | photoluminescence quantum yield (in CCCCOCCCC): 0.56 | photoluminescence quantum yield (in CN(C)C=O): 0.47

Structure (SMILES): COC(=O)c1cc(=O)n(C)c2cc(-c3cccc(N(C)C)c3)sc12
photoluminescence quantum yield (in CC#N): 0.03 | photoluminescence quantum yield (in ClCCl): 0.01

Structure (SMILES): CCCc1ccc(C#Cc2cc(C#Cc3ccc(N(C)C)cc3)c3ccc4c(C#Cc5ccc(N(C)C)cc5)cc(C#Cc5ccc(N(C)C)cc5)c5ccc2c3c54)cc1
photoluminescence quantum yield (in ClCCl): 0.47

Structure (SMILES): C[Si]1(C)c2cc(-c3ccc(-c4cccs4)s3)ccc2C=Cc2ccc(-c3ccc(-c4cccs4)s3)cc21
photoluminescence quantum yield (in ClCCl): 0.46

Structure (SMILES): C(=C\c1ncccn1)/c1ccc(-c2ccc(N(c3ccccc3)c3ccccc3)cc2)cc1
photoluminescence quantum yield (in ClCCl): 0.6

Structure (SMILES): CN(C)c1ccc(/C=C/C(=O)O)cc1
photoluminescence quantum yield (in C1CCOC1): 0.0134 | photoluminescence quantum yield (in CC#N): 0.0205 | photoluminescence quantum yield (in CCCCO): 0.0071 | photoluminescence quantum yield (in O): 0.002 | photoluminescence quantum yield (in c1ccccc1): 0.0112

Structure (SMILES): CCOC(=O)C(Cc1ccc(O[Si]2(Oc3ccc(CC(NC(C)=O)C(=O)OCC)cc3)n3c4c5ccccc5c3/N=C3N=C(/N=c5/c6ccccc6/c(n52)=N/C2=NC(=N\4)/c4ccccc42)c2ccccc2\3)cc1)NC(C)=O (centres undefined)
photoluminescence quantum yield (in CN(C)C=O): 0.11

Structure (SMILES): c1cc2c3c(c1)-c1cccc4ccn(c14)B3n1ccc3cccc-2c31
photoluminescence quantum yield (in C1CCOC1): 0.65

Structure (SMILES): CCN(CC)c1ccc(-c2nc3cc(C(NC(=O)OC(C)(C)C)C(=O)OC)ccc3o2)c(O)c1 (centres undefined)
photoluminescence quantum yield (in CC1CCCCC1): 0.11 | photoluminescence quantum yield (in CC#N): 0.43 | photoluminescence quantum yield (in CO): 0.08

Structure (SMILES): O=c1oc2ccccc2cc1-c1cc2ccccc2o1
photoluminescence quantum yield (in CC#N): 0.75 | photoluminescence quantum yield (in CCOC(C)=O): 0.79 | photoluminescence quantum yield (in CS(C)=O): 0.99 | photoluminescence quantum yield (in Cc1ccccc1): 0.88 | photoluminescence quantum yield (in O): 0.15

Structure (SMILES): Cc1sc(-c2ccc(-c3nc(-c4ccccc4)c(-c4ccccc4)[nH]3)cc2)c(C)c1C1=C(c2c(C)n(C)c3ccccc23)C(F)(F)C(F)(F)C1(F)F
photoluminescence quantum yield (in C1CCOC1): 0.084

Structure (SMILES): c1ccc([B-]23Oc4ccccc4-c4c5[n+]6c(c([n+]42)-c2ccccc2O3)-c2ccccc2O[B-]6(c2ccccc2)Oc2ccccc2-5)cc1
photoluminescence quantum yield (in ClCCl): 0.2

Structure (SMILES): CN(C)c1ccc2nc(/C=C/c3cc4c5c(c3)CCCN5CCC4)c(=O)oc2c1
photoluminescence quantum yield (in C1CCCCC1): 0.37 | photoluminescence quantum yield (in C1COCCO1): 0.56 | photoluminescence quantum yield (in CC#N): 0.023 | photoluminescence quantum yield (in CC(C)=O): 0.08 | photoluminescence quantum yield (in CCCCCCC): 0.32 | photoluminescence quantum yield (in CCO): 0.008 | photoluminescence quantum yield (in CCOC(C)=O): 0.39 | photoluminescence quantum yield (in CN(C)C=O): 0.036 | photoluminescence quantum yield (in CS(C)=O): 0.03 | photoluminescence quantum yield (in Cc1ccccc1): 0.55 | photoluminescence quantum yield (in ClC(Cl)Cl): 0.2 | photoluminescence quantum yield (in ClCCl): 0.19

Structure (SMILES): CCCCc1cc(CCCC)c2ccc3c(CCCC)cc(CCCC)c4ccc1c2c43
photoluminescence quantum yield (in CCCCCC): 0.55 | photoluminescence quantum yield (in CO): 0.67 | photoluminescence quantum yield (in ClCCl): 0.61

Structure (SMILES): CCCCC(CC)COc1ccc2nc(-c3ccc(-c4ccc(OC)cc4)s3)sc2c1 (centres undefined)
photoluminescence quantum yield (in ClCCl): 0.83

Structure (SMILES): COc1ccc(N(c2ccccc2)c2ccc(OC)cc2)cc1
photoluminescence quantum yield (in Cc1ccccc1): 0.03

Structure (SMILES): CCCCCCOc1cc(C=C2C(=O)c3ccccc3C2=O)c(OCCCCCC)cc1C=C1C(=O)c2ccccc2C1=O
photoluminescence quantum yield (in ClCCl): 0.697

Structure (SMILES): COc1ccccc1C1=[N+]2C(=C(c3ccccc3)c3c4c(c(-c5ccccc5OC)n3[B-]2(F)F)C2CCC4CC2)C2=C1C1CCC2CC1
photoluminescence quantum yield (in ClCCl): 0.77

Structure (SMILES): Fc1ccc(-c2cc3c4c(c2)CCc2cc(-c5ccc(F)cc5)cc(c2-4)CC3)cc1
photoluminescence quantum yield (in C1CCCCC1): 0.48 | photoluminescence quantum yield (in C1CCOC1): 0.81 | photoluminescence quantum yield (in CC#N): 0.19 | photoluminescence quantum yield (in CCCCCC): 0.55 | photoluminescence quantum yield (in CCO): 0.18 | photoluminescence quantum yield (in CN(C)C=O): 0.56 | photoluminescence quantum yield (in CO): 0.24 | photoluminescence quantum yield (in Cc1ccccc1): 1 | photoluminescence quantum yield (in ClC(Cl)Cl): 0.55 | photoluminescence quantum yield (in ClCCl): 1

Structure (SMILES): CC(C)[Si]1(C(C)C)c2ccccc2-c2ccc(N(C)C)cc21
photoluminescence quantum yield (in C1CCCCC1): 0.26 | photoluminescence quantum yield (in CC#N): 0.28 | photoluminescence quantum yield (in CCO): 0.11 | photoluminescence quantum yield (in CCOCC): 0.22 | photoluminescence quantum yield (in CS(C)=O): 0.12 | photoluminescence quantum yield (in ClCCl): 0.13 | photoluminescence quantum yield (in c1ccccc1): 0.22

Structure (SMILES): CCCCCCc1ccc(-n2c3c(c4c2c2c(n4-c4ccc(CCCCCC)cc4)-c4cccc(OC)c4NB2c2ccccc2)B(c2ccccc2)Nc2c(OC)cccc2-3)cc1
photoluminescence quantum yield (in Cc1ccccc1): 0.62

Second part, the molecule after the results:

photoluminescence quantum yield (in CC#N): 0.11 | photoluminescence quantum yield (in CCCCCC): 0.15 | photoluminescence quantum yield (in CCOC(C)=O): 0.14 | photoluminescence quantum yield (in CO): 0.14 | photoluminescence quantum yield (in ClCCl): 0.19
Structure (SMILES): COC1=[N+]2C(=C(c3ccccc3)c3ccc(OC)n3[B-]2(F)F)C=C1SC#N

photoluminescence quantum yield (in ClCCl): 0.94
Structure (SMILES): c1ccc(-c2ccc3c4ccc(-c5ccccc5)c5c(-c6ccccc6)ccc(c6cccc2c63)c54)cc1

photoluminescence quantum yield (in CCO): 0.95 | photoluminescence quantum yield (in ClCCl): 1
Structure (SMILES): Cc1ccccc1-c1c2ccc(=[N+]3CCCC3)cc-2oc2cc(N3CCCC3)ccc12

photoluminescence quantum yield (in ClC(Cl)Cl): 0.106
Structure (SMILES): F[B-]1(F)OC(c2cccc(Br)c2)=Cc2c3ccccc3c3ccccc3[n+]21

photoluminescence quantum yield (in ClCCl): 0.444
Structure (SMILES): Cc1cc2c3ccccc3oc2c2[nH]c3ccccc3c12

photoluminescence quantum yield (in C1CCCCC1): 0.29 | photoluminescence quantum yield (in C1CCOC1): 0.47 | photoluminescence quantum yield (in CC#N): 0.31
Structure (SMILES): Cc1ccc2nc3c(nc2c1)c(-c1ccccc1)nn3C

photoluminescence quantum yield (in CS(C)=O): 0.75
Structure (SMILES): O=c1c2ccccc2[nH]c2ccccc12

photoluminescence quantum yield (in CCCO): 0.57
Structure (SMILES): CCOC(=O)c1ccc2c(c1)[nH]c1c3ccc(C(=O)OCC)cc3[nH]c21

photoluminescence quantum yield (in CCCCCC): 0.52 | photoluminescence quantum yield (in CO): 0.56 | photoluminescence quantum yield (in ClCCl): 0.4
Structure (SMILES): Cc1ccc2ccc3c(C)ccc4ccc1c2c43

photoluminescence quantum yield (in ClC(Cl)Cl): 0.72
Structure (SMILES): CC1=C2CCc3ccccc3C2=[N+]2C1=C(c1ccc(I)cc1)c1c(C)c3c(n1[B-]2(F)F)-c1ccccc1CC3

photoluminescence quantum yield (in C1CCCCC1): 0.51
Structure (SMILES): Oc1ccc2ccccc2c1

photoluminescence quantum yield (in ClC(Cl)Cl): 0.38
Structure (SMILES): CCCCCCn1c2ccccc2c2cc(/C=C/c3cc(=O)oc4cc(C)ccc34)ccc21

photoluminescence quantum yield (in CS(C)=O): 0.75
Structure (SMILES): COc1ccc2cc(-c3cc4ccc(OC)cc4oc3=O)oc2c1

photoluminescence quantum yield (in CC#N): 0.014
Structure (SMILES): C[C@@]12SC(Cl)=CC1=c1nc(-c3ccccc3)[nH]c1=C1C=C(Cl)S[C@]12C

photoluminescence quantum yield (in ClCCl): 0.167
Structure (SMILES): COC(=O)c1[nH]c(-c2ccccc2)c2nnc3c4ccccc4oc3c12

photoluminescence quantum yield (in ClCCl): 0.86
Structure (SMILES): O=C1c2cc3ccccc3cc2C2=Nc3cccc[n+]3[B-](F)(F)N12

photoluminescence quantum yield (in CS(C)=O): 0.01
Structure (SMILES): C(/C=C/Nc1cccc2ccccc12)=[NH+]c1cccc2ccccc12

photoluminescence quantum yield (in ClCCl): 0.26
Structure (SMILES): c1ccc(B2Nc3cc4c(cc3-c3occc32)NB(c2ccccc2)c2ccoc2-4)cc1

photoluminescence quantum yield (in CS(C)=O): 0.89
Structure (SMILES): c1ccc(-c2nc3sc4ccccc4c3s2)cc1

photoluminescence quantum yield (in CC#N): 0.23 | photoluminescence quantum yield (in CCCCOCCCC): 0.27 | photoluminescence quantum yield (in CO): 0.13
Structure (SMILES): CC(=O)Nc1ccc2ccc3cccc4ccc1c2c34

photoluminescence quantum yield (in ClCCl): 0.056
Structure (SMILES): O=Cc1ccc(C2=Cc3ccccc3P2(=O)c2ccccc2)cc1 (centres undefined)

photoluminescence quantum yield (in CCCCCC): 0.22
Structure (SMILES): CC(C)[Si](C#Cc1c2cc3ccccc3cc2c(C#C[Si](C(C)C)(C(C)C)C(C)C)c2nc3c(ccc4ccccc43)nc12)(C(C)C)C(C)C

photoluminescence quantum yield (in C1CCOC1): 0.011
Structure (SMILES): CCOC(=O)c1ccc(C2=C(c3ccccc3)c3sc4ccccc4[n+]3[B-](F)(F)O2)cc1
